Assay results from patent US11466007B2, “Substituted lactams showing serotonin 5-HT receptor activity” (Sumitomo Pharma Co., Ltd., priority 2018, dated 2022).

System: not listed separately
Assay: Test 4: metabolic stability test in human hepatic microsome
Format: in vitro ADME
Conditions: 0.1 mg/mL microsome, 0.1 μmol/L compound, NADPH, 37° C., 30 minutes
Experimental: Test 4: Metabolic Stability Test in Human Hepatic Microsome
The stability of the present compound in human hepatic microsome metabolism was evaluated as mentioned below. Human hepatic microsome was obtained from Xenontech. Human hepatic microsome, NADPH, and each test compound were mixed in 25 mmol/L phosphate buffer solution (pH 7.4) to reach the following concentrations as shown below, and the mixture was incubated at 37° C. for 30 minutes. • Human hepatic microsome: 0.1 mg/mL • NAPDH: 3.2 mmol/L • Test compound: 0.1 μmol/L
The residual ratio of the test compound in each sample after 30 minutes was measured by LC-MS, and the metabolic stability in human hepatic microsome was calculated from the following formula. Metabolic stability in human hepatic microsome (mL/min/mg protein)=−LN(residual ratio)/30/0.1

| SMILES | Metabolic stability in human hepatic microsome |
| --- | --- |
| Cn1ncc2c1C(=O)N(CCN1CCC(c3noc4ccccc34)CC1)CC2 [Example 96, 6-{2-[4-(1,2-Benzoisoxazol-3-yl)piperidin-1-yl]ethyl}-1-methyl-1,4,5,6-tetrahydro-7H-pyrazolo[3,4-c]pyridin-7-one] | 0.019 mL/min/mg protein |
| Cn1ccc2c1CCCN(CCN1CCN(c3noc4ccccc34)CC1)C2=O [Example 109, 5-{2-[4-(1,2-Benzoisoxazol-3-yl)piperazin-1-yl]ethyl}-1-methyl-5,6,7,8-tetrahydropyrrolo[3,2-c]azepin-4 (H)-one] | <0.01 mL/min/mg protein |
| Cc1cc2ccn(CCN3CCN(c4noc5ccccc45)CC3)c(=O)c2cn1 [Example 113, 2-{2-[4-(1,2-Benzoisoxazol-3-yl)piperazin-1-yl]ethyl}-6-methyl-2,7-naphthyridin-1(2H)-one] | 0.079 mL/min/mg protein |
| O=c1c2cccnc2ccn1CCN1CCN(c2noc3ccccc23)CC1 [Example 115] | <0.05 mL/min/mg protein |
| O=c1c2cnccc2ccn1CCN1CCN(c2noc3ccccc23)CC1 [Example 116] | 0.1 mL/min/mg protein |
| O=c1c2ncccc2ccn1CCN1CCN(c2noc3ccccc23)CC1 [Example 117] | <0.05 mL/min/mg protein |
| O=C1c2cccnc2CCN1CCN1CCC(c2noc3cc(F)ccc23)CC1 [Example 121] | <0.05 mL/min/mg protein |
| CC(CN1CCC(c2noc3cc(F)ccc23)CC1)N1CCc2cccnc2C1=O (stereo not shown) [Example 122] | <0.05 mL/min/mg protein |
| O=C1c2ncccc2CCN1CCN1CCN(c2noc3cc(F)ccc23)CC1 [Example 123] | <0.05 mL/min/mg protein |
| O=C1c2ncccc2CCN1CCN1CCC(c2noc3cc(F)ccc23)CC1 [Example 125] | <0.05 mL/min/mg protein |
| O=C1c2occc2CCN1CCN1CCC(c2noc3ccccc23)CC1 [Example 127] | <0.05 mL/min/mg protein |
| O=C1c2cccnc2CCN1CCN1CCC(c2noc3ccccc23)CC1 [Example 128] | <0.05 mL/min/mg protein |
| O=c1c2cncnc2ccn1CCN1CCC(c2noc3ccccc23)CC1 [Example 129] | 0.084 mL/min/mg protein |
| Cn1ncc2c1CCN(CCN1CCC(c3noc4ccccc34)CC1)C2=O [Example 130] | <0.05 mL/min/mg protein |
| Cn1ncc2c1CCN(CCN1CCN(c3noc4ccccc34)CC1)C2=O [Example 131] | <0.05 mL/min/mg protein |
| Cn1cnc2c1C(=O)N(CCN1CCC(c3noc4ccccc34)CC1)CC2 [Example 133] | <0.05 mL/min/mg protein |
| Cn1cnc2c1C(=O)N(CCN1CCC(c3noc4ccccc34)CC1)CCC2 [Example 134] | <0.05 mL/min/mg protein |
| Cc1cc2c(cn1)C(=O)N(CCN1CCC(c3noc4ccccc34)CC1)CC2 [Example 135] | <0.05 mL/min/mg protein |
| Cc1cncc2c1CCN(CCN1CCN(c3noc4ccccc34)CC1)C2=O [Example 137] | <0.05 mL/min/mg protein |
| Cc1cncc2c1CCN(CCN1CCC(c3noc4ccccc34)CC1)C2=O [Example 138] | 0.083 mL/min/mg protein |
| Cc1nc(C)c2c(n1)CCN(CCN1CCC(c3noc4ccccc34)CC1)C2=O [Example 139] | <0.05 mL/min/mg protein |
| O=C1c2nc(Cl)ccc2CCN1CCN1CCN(c2noc3ccccc23)CC1 [Example 144] | <0.05 mL/min/mg protein |

| SMILES | Metabolic stability in human hepatic microsome |
| --- | --- |
| O=C1c2cccnc2CCN1CCN1CCN(c2noc3ccccc23)CC1 [Example 153, 6-{2-[4-(1,2-Benzoisoxazol-3-yl)piperazin-1-yl]ethyl}-7,8-dihydro-1,6-naphthyridin-5(6H)-one] | <0.05 mL/min/mg protein |
| Cc1nc2c(o1)C(=O)N(CCN1CCC(c3noc4ccccc34)CC1)CCC2 [Example 154] | <0.05 mL/min/mg protein |
| Cn1cc2c(n1)C(=O)N(CCN1CCC(c3noc4ccccc34)CC1)CC2 [Example 156] | <0.05 mL/min/mg protein |
| Cc1nc2c(o1)CCCN(CCN1CCC(c3noc4ccccc34)CC1)C2=O [Example 157] | <0.05 mL/min/mg protein |
| CC(C)n1ncc2c1CCN(CCN1CCC(c3noc4ccccc34)CC1)C2=O [Example 159] | <0.05 mL/min/mg protein |
| O=C1c2cnn(C3CC3)c2CCN1CCN1CCN(c2nsc3ccccc23)CC1 [Example 160] | 0.13 mL/min/mg protein |
| O=C1c2cnn(C3CC3)c2CCN1CCN1CCC(c2noc3ccccc23)CC1 [Example 161] | <0.05 mL/min/mg protein |
| CC(C)c1nc2c(o1)C(=O)N(CCN1CCC(c3noc4ccccc34)CC1)CC2 [Example 164] | 0.097 mL/min/mg protein |
| Cc1cc2c(n1C)CCCN(CCN1CCC(c3noc4ccccc34)CC1)C2=O [Example 166] | <0.05 mL/min/mg protein |
| Cn1ccc2c1CCN(CCN1CCN(c3noc4ccccc34)CC1)C2=O [Example 170] | <0.05 mL/min/mg protein |
| Cc1c2c(nn1C)CCN(CCN1CCN(c3noc4ccccc34)CC1)C2=O [Example 171] | <0.05 mL/min/mg protein |
| COc1ncc2c(n1)CCN(CCN1CCC(c3noc4ccccc34)CC1)C2=O [Example 176] | <0.05 mL/min/mg protein |
| COc1ncc2c(n1)CCN(CCN1CCN(c3nsc4ccccc34)CC1)C2=O [Example 177] | 0.095 mL/min/mg protein |
| Cc1ccc2c(n1)C(=O)N(CCN1CCN(c3noc4ccccc34)CC1)CC2 [Example 183] | <0.05 mL/min/mg protein |
| Cc1ccc2c(n1)C(=O)N(CCN1CCC(c3noc4ccccc34)CC1)CC2 [Example 184] | <0.05 mL/min/mg protein |
| O=C1c2nc(F)ccc2CCN1CCN1CCC(c2noc3ccccc23)CC1 [Example 188, 7-{2-[4-(1,2-Benzoisoxazol-3-yl)piperidin-1-yl]ethyl}-2-fluoro-6,7-dihydro-1,7-naphthyridin-8(5H)-one] | <0.05 mL/min/mg protein |
| O=C1c2cn[nH]c2CCN1CCN1CCC(c2noc3ccccc23)CC1 [Example 189, 5-{2-[4-(1,2-Benzoisoxazol-3-yl)piperidin-1-yl]ethyl}-1,5,6,7-tetrahydro-4H-pyrazolo[4,3-c]pyridin-4-one] | <0.05 mL/min/mg protein |
| O=C1c2ncoc2CCN1CCN1CCC(c2noc3ccccc23)CC1 [Example 190, 5-{2-[4-(1,2-Benzoisoxazol-3-yl)piperidin-1-yl]ethyl}-6,7-dihydro[1,3]oxazolo[4,5-c]pyridin-4(5H)-one] | <0.05 mL/min/mg protein |
| O=C1c2nc[nH]c2CCN1CCN1CCC(c2noc3ccccc23)CC1 [Example 191, 5-{2-[4-(1,2-Benzoisoxazol-3-yl)piperidin-1-yl]ethyl}-6,7-dihydro[1,3]imidazolo[4,5-c]pyridin-4(5H)-one] | <0.05 mL/min/mg protein |
| O=C1c2c(Br)n[nH]c2CCN1CCN1CCC(c2noc3ccccc23)CC1 [Example 192, 5-{2-[4-(1,2-Benzoisoxazol-3-yl)piperidin-1-yl]ethyl}-3-bromo-1,5,6,7-tetrahydro-4H-pyrazolo[4,3-c]pyridin-4-one] | <0.05 mL/min/mg protein |
| Cc1ncc2c(=O)n(CCN3CCC(c4noc5ccccc45)CC3)ccc2n1 [Example 194, 6-{2-[4-(1,2-Benzoisoxazol-3-yl)piperidin-1-yl]ethyl}-2-methylpyrido[4,3-d]pyrimidin-5(6H)-one] | <0.05 mL/min/mg protein |

Target: human D2 receptor (Homo sapiens (Human), UniProt P14416)
Sequence (P14416 whole entry): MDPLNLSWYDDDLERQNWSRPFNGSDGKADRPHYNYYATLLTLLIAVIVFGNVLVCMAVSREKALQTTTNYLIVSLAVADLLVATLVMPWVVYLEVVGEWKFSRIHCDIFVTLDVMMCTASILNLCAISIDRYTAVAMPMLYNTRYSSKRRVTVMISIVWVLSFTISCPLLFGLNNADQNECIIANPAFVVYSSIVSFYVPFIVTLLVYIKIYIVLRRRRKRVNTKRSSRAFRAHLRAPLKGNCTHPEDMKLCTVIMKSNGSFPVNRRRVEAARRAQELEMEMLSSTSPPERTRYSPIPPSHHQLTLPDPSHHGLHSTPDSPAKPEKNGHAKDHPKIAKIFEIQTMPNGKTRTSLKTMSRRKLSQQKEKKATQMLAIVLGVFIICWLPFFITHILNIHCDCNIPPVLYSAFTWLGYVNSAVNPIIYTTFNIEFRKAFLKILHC
Assay: Test 1: binding activity for human D2 receptor ([3H]Spiperone)
Conditions: ratio of D2 Ki to 5-HT1A Ki
Experimental: Test 1: Evaluation of Binding Activity for Human 5-HT1A Receptor, Human 5-HT2A Receptor, and Human D2 Receptor
Binding affinity of the present compound for human 5-HT1A receptor, human 5-HT2A receptor, and human D2 receptor was measured by the following procedures.
Each mixture was incubated at room temperature for 60 minutes. Then, the mixture was added quickly on a glassfiber filter plate (Multiscreen FB, Millipore, Inc.) coated with 0.3% aqueous polyethylenimine, and vacuum-filtered. Radioactivity remaining on the filter was measured with a liquid scintillation counter (PerkinElmer, Inc.). Binding inhibition rate was calculated from the following formula.
Ki of each compound was calculated from the following formula. Binding inhibition constant (Ki)=IC50/(1+S/Kd) wherein S is concentration of ligand; Kd is a binding dissociation constant of ligand to membrane, which is calculated from a saturated binding experiment conducted with the same cell membrane. A small Ki value means strong binding ability to a receptor.

| SMILES | D2 Ki/5-HT1A Ki |
| --- | --- |
| Cn1ncc2c1C(=O)N(CCN1CCC(c3noc4ccccc34)CC1)CC2 [Example 96, 6-{2-[4-(1,2-Benzoisoxazol-3-yl)piperidin-1-yl]ethyl}-1-methyl-1,4,5,6-tetrahydro-7H-pyrazolo[3,4-c]pyridin-7-one] | 9 |
| Cn1cnc2c1CCCN(CCN1CCC(c3noc4ccccc34)CC1)C2=O [Example 101, 5-{2-[4-(1,2-Benzoisoxazol-3-yl)piperidin-1-yl]ethyl}-1-methyl-5,6,7,8-tetrahydroimidazo[4,5-c]azepin-4(1H)-one] | 17 |
| Cc1cncc2c1CCN(CCN1CCN(c3noc4ccccc34)CC1)C2=O [Example 137] | 5.8 |

Same assay, conditions: ratio of D2 Ki to 5-HT2A Ki

| SMILES | D2 Ki/5-HT2A Ki |
| --- | --- |
| Cn1ncc2c1C(=O)N(CCN1CCC(c3noc4ccccc34)CC1)CC2 [Example 96, 6-{2-[4-(1,2-Benzoisoxazol-3-yl)piperidin-1-yl]ethyl}-1-methyl-1,4,5,6-tetrahydro-7H-pyrazolo[3,4-c]pyridin-7-one] | 14 |
| O=C1c2cnc(OC3COC3)cc2CCN1CCN1CCN(c2nsc3ccccc23)CC1 [Example 111, 2-{2-[4-(1,2-Benzoisothiazol-3-yl)piperazin-1-yl]ethyl}-6-[(oxetan-3-yl)oxy]-3,4-dihydro-2,7-naphthyridin-1(2H)-one] | 530 |
| COc1ccc2onc(C3CCN(CCN4CCc5cccnc5C4=O)CC3)c2c1 [Example 142] | >61.0 |
